{"source": "patent US20230165838A1", "about": "“TREATMENT FOR ACUTE RESPIRATORY DISTRESS SYNDROME” (DIMERIX BIOSCIENCE LTD., priority 2020, published 2023)", "origin": "cited, not measured here", "test_system": "monocytes", "conditions": "MCP-1 induced; mechanism seems to require GPI-anchored proteins such as CD55, CD59 and CD16 (Yokochi, S. 2001)", "data": [{"smiles": "O=C(O)C[CH2][Ge](=[O])[O][Ge](=[O])[CH2]CC(=O)O", "note": "[Propagermanium, 3-[(2-Carboxyethyl-oxogermyl)oxy-oxogermyl]propanoic acid]", "values": [{"measurement": "in vitro chemotactic migration of monocytes by MCP-1", "value": "specifically inhibit"}]}]}
